Measurements from patent US7910579B2, “Benzoxazole derivatives” (Tohoku University, priority 2006, dated 2011).

What was measured:
[1] = target: T1, amyloid β protein in the brain section of an Alzheimer disease patient (Homo sapiens, UniProt P05067); assay: Staining test on a brain section of an Alzheimer disease patient: amyloid β protein; format: binding; conditions: for Binding to (staining of) amyloid β protein in the brain section of an Alzheimer disease patient: 100 μM solution in 50% ethanol, 10 minutes, paraffin brain section; for Specificity to amyloid β: statement in the description of formulae (II) to (VI)
T1 construct: from tissue; host or cells: paraffin-embedded temporal lobe and hippocampus of Alzheimer disease patients
T1 sequence (P05067 672-713 limits assumed): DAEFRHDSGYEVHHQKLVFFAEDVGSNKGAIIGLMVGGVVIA
Text: (§1) (1) Brain specimens at the temporal lobe and the hippocampus of patients to which a definitive diagnosis of Alzheimer disease had been given, and those of normal senile persons were used. The specimens were given by our coworker, Fukushimura Hospital, Longevity Medicine Institute, and we were given their consent of use of the specimens for our study purpose by the bereaved of the patients (Fukushimura Hospital Ethical Review Board Approval No. 20).
(§2) (2) The paraffin-embedded brain tissue was cut Into slices having a thickness of 6 μm or 8 μm, and extended and dried on a slide. The paraffin brain section was steeped for paraffin removal in xylene twice for 10 minutes, 100% ethanol twice for 5 minutes, 90% ethanol for 5 minutes and running water for 10 minutes in that order.
(§3) (3) For pretreatment prior to the staining treatment with a compound of the invention, the sections were steeped for autofluorescence removal with lipofuscin. First, the paraffin-removed sections were dipped in 0.25% KMnO4 solution for 20 minutes. These were washed with PBS, twice for 2 minutes, then dipped in 0.1% K2S2O5/oxalic acid solution for about 5 seconds, and then further washed with PBS, three times for 2 minutes.
(§4) (4) About 150 μl of a 100 μM solution of a compound of the invention dissolved in 50% ethanol was dropwise applied to the section and reacted for 10 minutes. After dipped five times in tap water, the section was entrapped with Fluor Save Reagent (Calbiochem), and analyzed through microscopy with a fluorescence microscope (Nikon, Eclipse 80i). The images were taken with a digital camera (Nikon Dxm 1200F or Photometrics' Cool SNAP ES).
(1) After paraffin removal, the sections were washed in distilled water, twice for 2 minutes. Then, using ImmunoPen, the tissue was marked with a surrounding line; about 150 μl of formic acid was dropwise applied to the section and statically left at room temperature for 5 minutes. The section was washed with tap water for 5 minutes, then dipped in cold PBS-Tween 20 for 2 minutes, and thereafter about 150 μl of 0.05% trypsin solution was dropwise applied to it and reacted at 37° C. for 15 minutes.
(2) In an ice bath, this was washed with cold PBS-Tween 20, twice for 5 minutes, and then 2 drops of blocking serum were applied to it and reacted at 37° C. for 30 minutes. Excess water was removed, and then about 150 μl of a specific antibody to amyloid β protein, 6F/3D (by DAKO, 1/50 dilution) was dropwise applied to it, and reacted at 37° C. for 1 hour.
(3) Further, this was washed with cold PBS-Tween 20, 5 times for 2 minutes, and then 2 drops of an anti-mouse IgG (H+L), goat, biotin-binding solution were applied to it and reacted at 37° C. for 1 hour. Then, this was washed with cold PBS-Tween 20, three times for 2 minutes, and 2 drops of an ABC solution (streptoavidin-biotin-peroxidase composite solution) were applied to it, and left statically as such for 30 minutes. Again this was washed with cold PBS-Tween 20, three times for 2 minutes, and then about 150 μl of a DAB solution (10 mg of DAB was dissolved in 20 ml of 0.05 mol/liter tris-HCl buffer, and just before use, 100 μl of 3% hydrogen peroxide water was added to it) was dropwise applied to it for sufficiently staining it. Then, this was washed with distilled water for 1 minute to stop the reaction, then entrapped and observed through microscopy.

[2] = system: neurofibrillary tangle in the brain section of an Alzheimer disease patient; assay: Staining test on a brain section of an Alzheimer disease patient: neurofibrillary tangle; format: binding, human; conditions: 100 μM solution in 50% ethanol, 10 minutes, paraffin brain section
Text: as §1, §2, §3
as §4, with “ES). […]” for “ES).”

Acute Toxicity Test = format: in vivo; conditions: Crj:CD1 male mice, tail vein, observed for 7 days
Method: The compounds of the invention were tested for their acute toxicity through intravenous administration thereof to mice. Four Crj:CD1 male mice formed one test group, and some test groups of those mice were used (the mean body weight of the mice of each group was from 31 to 32 g). A test compound was dissolved in a mixture of 1 N HCl, polyethylene glycol-400 and distilled water, or dissolved in DMSO, and then diluted with distilled water. This was administered to each mouse via its tail vein.

[3] = system: histidine-requiring Salmonella typhimurium TA100 and TA98 strains; assay: Mutagenicity Test (reverse mutation test); format: cell-based
Method: In view of their use, it is desirable that the compounds of the invention have no mutagenicity or have little mutagenicity to a level causing no problem. For investigating the gene mutagenesis of the compounds of the invention, herein carried out was a reverse mutation test with histidine-requiring Salmonella typhimurium TA100 and TA98 strains. Two tests were carried out. One is a test for dose determination test; and the other is for mutagenicity.
The test methods and the mutagenicity of the compounds of the invention are mentioned below. In the dose determination test, six doses of 0.160, 0.800, 4.00, 20.0, 100 and 500 μg/plate (common ratio 5) were tried.
As a result of the dose determination test, when the mutagenicity of the test compound was admitted, then the actual test for mutagenicity was carried out, using the dose capable of giving an accurate dose-reaction curve. When no mutagenicity of the test compound was admitted in the dose determination test and when the growth inhibition of the test cells was admitted therein, then the dose to present the growth inhibition was taken as the maximum dose; and when the growth inhibition was not admitted, then a dose of 5000 μg/plate was taken as the maximum dose. With that, the actual test for mutagenicity was carried out on the level of 6 doses (common ratio 2).
First, a test compound was dissolved or suspended in DMSO, then diluted in order to prepare test compound liquids having a varying concentration.
100 μl of a test compound liquid or a negative control (DMSO) solution was put into a sterilized test tube. Then, for the case in the absence of a metabolic activation system (−S9mix), 500 μl of 0.1 mol/liter sodium-phosphate buffer (pH 7.4) was added to it; and for the case in the presence of a metabolic activation system (+S9mix), 500 μl of S9mix was added to it.
Next, 100 μl of the test strain suspension that had been cultivated with shaking at 37° C. for 8 hours was added to it, and preincubated in a shaking thermostat at 37° C. for 20 minutes. After shaken, 2 ml of top agar was added to it, and the contents were mixed.
Next, the mixture was poured onto a minimal glucose agar plate medium (plate) and spread uniformly thereon, then the top agar was solidified, and the plate was transferred into a thermostat and incubated at 37° C. for 48 hours.
Then, the number of the colonies grown through reverse mutation was counted.
For counting it, […]. After area correction and miss-counting correction, the number of the colonies was computed. When the colony analyzer could not be used owing to the deposition of the test compound or the cell growth inhibition, then the number of the colonies was counted with the naked eye.
In case where the number of the colonies through reverse mutation increased two times or more that of the negative control and where the dose dependency or the reproducibility of the increase was admitted, then the tested sample was decided as positive. When the sample was is decided as positive, then the relative activity that indicates the relative comparative value of the intensity of the mutagenicity of the test compound was obtained according to the following formula: Relative Activity={(number of colonies per plate having the concentration)−(number of colonies per negative control plate)}/the value of concentration (mg/plate).

[4] = target: T2, Tg mouse intracerebral amyloid plaque (Homo sapiens, UniProt P05067); assay: Investigation of transgenic (Tg) mice with amyloid deposition in their brain (fluorescence microscopy of brain sections after intravenous administration); format: in vivo; conditions: APPswe2576/Tau JPL3 mouse, 4 mg/kg intravenous, 1 hour after administration
T2 construct: from tissue; host or cells: brain of Tg mice (Tg2576 or APPswe2576/Tau JNPL3) after intravenous dosing
T2 sequence (P05067 672-713 limits assumed): as above

| Compound | Binding to (staining of) amyloid β protein in the brain section of an Alzheimer disease patient [1] | Specificity to amyloid β [1] | Binding to (staining of) neurofibrillary tangle in the brain section of an Alzheimer disease patient [2] | Maximum Permissible Dose (mg/kg, intravenous administration) (Acute Toxicity Test) | Relative activity (mutagenicity) ([3]; irrespective of the absence or presence of S9mix) | Relative Activity in the presence of S9Mix ([3]; reverse mutation test, +S9mix) | Relative Activity in the absence of S9Mix ([3]; reverse mutation test, -S9mix) | Passage through the blood-brain barrier and binding to Tg mouse intracerebral amyloid plaque [4] |
| --- | --- | --- | --- | --- | --- | --- | --- | --- |
| CN(C)c1ccc(-c2nnc(-c3sc4ccccc4c3Cl)o2)cc1 [THK-258, [4-[5-(3-chloro-benzo[b]thiophen-2-yl)-[1,3,4]oxadiazol-2-yl]-phenyl]-dimethylamine] | bound to the amyloid β protein | high specificity to amyloid β | bound to the amyloid β protein and the neurofibrillary tangle | – | – | – | – | – |
| OCC(CF)COc1ccc2nc(/C=C/c3cnc(N4CCOCC4)s3)oc2c1 (stereo not shown) [THK-727, 2-fluoromethyl-3-[2-[2-(2-morpholin-4-yl-thiazol-5-yl)-vinyl]-benzoxazol-6-yloxy]-propan-1-ol] | white space arrow indicates amyloid β protein | – | white space arrow head indicates neurofibrillary tangle | ≧10 mg/kg | minus | minus | minus | passed through the blood-brain barrier, and bound to the Tg mouse intracerebral amyloid plaque |
| CN1C=CC(=C/C=C2\C=Nc3ccccc32)C=C1 [THK-185, 3-[2-(1-methyl-1H-pyridin-4-ylidene)-ethylidene]-3H-indole] | bound to the amyloid β protein | high specificity to amyloid β | bound to the amyloid β protein and the neurofibrillary tangle | – | – | – | – | – |
